The values that follow come from patent US20090163409A1, “Trappin-2 (elafin) inhibits HIV” (priority 2005, published 2009).

Assay [1] relates to HIV HxBc2. Briefly: HIV HxBc2 viral replication in MT4 cells (RT activity in supernatants, p24 western blot). It is filed as cell-based. The method, then:
FIG. 4. Trappin-2 inhibits HIV viral replication in an in vitro system. A) We tested HIV HxBc2 in an established viral replication model system and measured the effect of pretreatment of recombinant human trappin-2 (6.0 kDa form) on cells in viral infection 15,19. Briefly, 1 or 5 ug/mL of trappin-2 was incubated with MT4 cells for 1 hour. Then equivalent amounts of virus (0.02 cpm/cell) were added to the cells in the presence of trappin-2 for 2 hours. Infected cells were washed and cultured in the absence of trappin-2. As a control, 10 uM of AZT was used. Viral production in supernatants was evaluated by RT activity after 6 days of culture. […] B) The experiment was repeated with an additional assay of trappin-2 preincubated with cells and subsequently supplemented into the culture media (lane 6). Supernatants were harvested at Day 6 of infection and assayed for both RT activity and western blot analysis for HIV p24. Error bars are mean±SEM.
(§1) Finally, the ability of trappin-2 (6.0 kDa form) to inhibit HIV infection in an established HIV infection model was examined. A highly infectable T cell line (MT4) was used to assay the effect of trappin-2 inhibition on HIV HxBc2 replication 13,14,15. HIV inhibition experiments were performed by preincubating trappin-2 with either the virus, or target cells. […] In our in vitro system a 5 fold increase in trappin-2 (FIG. 4b) had significant effects on HIV replication. Trappin-2 has previously been reported to have immunomodulatory effects and thus its influence on immune regulation is of interest. To determine if the HIV inhibitory effects of trappin-2 are the result of induction of anti-viral cytokines such as IFN-γ, cytokine responses of MT4 cells after treatment with trappin-2 were measured.

Assay [2] concerns MT4 cells. Briefly: Cytokine responses of MT4 cells after treatment with trappin-2. The class given is cell-based. On the procedure: as §1
Assay [3] deals with macrophage tropic (R5) HIV. As to conditions: macrophage tropic (R5) viruses; cited from earlier work.
Assay [4] relates to T cell tropic (X4) HIV. As to conditions: T cell tropic (X4) viruses; cited from earlier work.

Entries after “also recorded” stand apart in the source; their conditions may differ. Where no end group is shown, it is not given here.

Take “trappin-2: recombinant human trappin-2 (6.0 kDa form), serine protease inhibiter of the Trappin family, also known as elafin/SKALP (AQEPVKGPVSTKPGSCPIILIRCAMLNPPNRCLKDTDCPGIKKCCEGSCGMACFVPQ; not fully specified (bridges); also: four disulfide bridges, pairing not given here; UniProt P19957 61-117, looked up)”: in assay [1] (MT4 cells pretreated 1 hour with 1 or 5 ug/mL trappin-2 (physiological concentrations), virus 2 hours, washed, cultured without trappin-2, day 6), the “HIV viral replication (RT activity in supernatants)” value was “greatly reduced HIV viral replication in a dose dependent manner; also recorded: significantly reduced virus replication”. In addition, the “inhibition of HIV replication” value in assay [1] (simultaneous addition of trappin-2 and virus to target cells, compared with 1-hour pre-exposure) was “significantly less inhibition”. For the same molecule, the “HIV viral replication (RT activity, p24 western blot)” value in assay [1] (trappin-2 preincubated 1 hour with cells and added back into the culture media, day 6) is on record as “even more dramatic decrease in viral replication”. For the same molecule, the “induction of cytokines (anti-viral cytokines such as IFN-γ)” value in assay [2] was “No induction of cytokines was detected”.

B1: SLP-I: protease inhibitor and member of the antileukoprotease superfamily, first isolated from human saliva (protein, UniProt P03973 26-132, looked up)
Antileukoproteinase: SGKSFKAGVCPPKKSAQCLRYKKPECQSDWQCPGKKRCCPDTCGIKCLDPVDTPNPTRRKPGKCPVTYGQCLMLNPPNFCEMDGQCKRDLKCCMGMCGKSCVSPVKA
With B1, the “inhibition of HIV infection of macrophage cells” value in assay [3] is “inhibit HIV infection of macrophage cells”. For the same molecule, the “prevention of infection of T cells” value in assay [4] is given as “does not prevent infection of T cells”.
